# Target: T1, IRE1α endonuclease (Rattus norvegicus, UniProt A0A4Y1YQ52)
# T1 construct: endogenous in cells; host or cells: primary aortic vascular smooth muscle cells from 5-week old WKY rats
# Experiment: XBP1 splicing assay in VSMCs
# Assay type: cell-based
# Protocol: VSMCs were treated with tunicamycin (1 μg/ml) and either 4μ8c (30 μM) or STF-083010 (60 μM) for 6 h or 24 h. (A) Agarose gel for assessment of XBP1 splicing after 6 h of treatment with tunicamycin and densitometric quantification. (B) Western blot for assessment of ER chaperone expression after 24 h tunicamycin treatment with or without inhibition of IRE1α by 4μ8c. Data is presented as mean±SEM. *, p<0.05 vs. Vehicle; #, p<0.05 vs. Tm.
# VSMCs were cultured in DMEM/F12 containing 1% FBS. Confluent cells were treated with L-ascorbic acid-2-phosphate (100 μg/ml) and either TGF-β1 (5 ng/ml) or Ang II (1 μM). (A) Agarose gel for assessment of TGF-β1-induced XBP1 splicing in VSMCs after 24 h. (B) Picro-Sirius Red assay for measurement of collagen deposition induced by combined TGF-β1 and AA2P treatment after 72 h, and inhibition by 4μ8c and STF-083010. (C) Western blot for assessment of collagen chaperone expression after treatment of TGF-β1 and 4μ8c for 48 h. *, p<0.05. (D) Measurement of Ang II-induced collagen production and inhibition by 4μ8c and STF-083010 after 72 h.
# VSMCs were isolated from the aortas of 5-week old WKY rats using the explant method^29. The thoracic aorta was removed from the animal and placed in ice-cold 5× Antibiotics-Antimycotics solution (ThermoFisher). The adventitia was gently removed and the aorta was cut longitudinally. The endothelial layer was removed by gentle scraping with forceps. […]
# Total RNA was extracted from cultured cells and rat tissues using the TRIzol reagent (ThermoFisher) according to manufacturer's instructions. RNA concentration and purity were measured using a Nanodrop ND-1000 spectrophotometer (NanoDrop Technologies, Inc.). […]
# Aortic VSMCs were isolated from normotensive WKY rats and used for in vitro experiments. […] To test the ability of these compounds to block the IRE1α endonuclease, XBP1 splicing was measured in VSMCs treated with the ER stress inducer tunicamycin for 6 h with or without pre-treatment by 4μ8c or STF-083010. […]
# T1 sequence (A0A4Y1YQ52 21-977): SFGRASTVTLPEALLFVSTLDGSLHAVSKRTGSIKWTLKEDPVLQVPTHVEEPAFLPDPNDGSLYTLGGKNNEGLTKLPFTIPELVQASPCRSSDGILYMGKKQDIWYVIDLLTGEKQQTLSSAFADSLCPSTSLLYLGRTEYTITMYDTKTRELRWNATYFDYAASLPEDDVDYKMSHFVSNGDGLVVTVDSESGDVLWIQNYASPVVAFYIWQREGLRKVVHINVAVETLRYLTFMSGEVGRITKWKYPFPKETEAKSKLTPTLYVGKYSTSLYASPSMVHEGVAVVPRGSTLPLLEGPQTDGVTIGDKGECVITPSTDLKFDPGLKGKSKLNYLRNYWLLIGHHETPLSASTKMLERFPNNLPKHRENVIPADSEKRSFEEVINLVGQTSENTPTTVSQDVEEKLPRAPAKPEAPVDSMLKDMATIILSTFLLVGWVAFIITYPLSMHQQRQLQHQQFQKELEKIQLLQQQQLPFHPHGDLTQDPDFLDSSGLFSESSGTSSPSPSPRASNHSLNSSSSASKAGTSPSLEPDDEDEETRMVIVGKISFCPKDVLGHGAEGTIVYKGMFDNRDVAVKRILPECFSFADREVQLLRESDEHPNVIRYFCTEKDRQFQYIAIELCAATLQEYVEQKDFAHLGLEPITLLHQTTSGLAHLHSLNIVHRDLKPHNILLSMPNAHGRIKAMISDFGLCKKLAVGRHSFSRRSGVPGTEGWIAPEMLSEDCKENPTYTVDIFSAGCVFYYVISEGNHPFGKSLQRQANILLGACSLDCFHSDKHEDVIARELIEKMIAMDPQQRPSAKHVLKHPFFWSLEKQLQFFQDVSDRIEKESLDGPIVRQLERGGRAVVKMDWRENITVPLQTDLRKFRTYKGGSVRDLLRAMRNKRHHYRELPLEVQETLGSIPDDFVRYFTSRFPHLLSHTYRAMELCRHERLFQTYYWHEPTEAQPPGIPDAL
compound,measurement,setting,value
"Cc1cc(=O)oc2c(C=O)c(O)ccc12 [4μ8c, 7-Hydroxy-4-methyl-2-oxo-2H-chromene-8-carbaldehyde]",TGF-β1 induced XBP1 splicing,"TGF-β1 (5 ng/ml) 24 h, co-treatment, FIG. 2A",blocked
same,spliced-to-unspliced XBP1 ratio,"tunicamycin (1 μg/ml) 6 h, 4μ8c 30 μM or STF-083010 60 μM, FIG. 1A",reduced

# — US20190038597A1, “PREVENTION OF VASCULAR AND CARDIAC FIBROSIS VIA IRE1ALPHA INHIBITION” (McMaster University, priority 2017, published 2019)
